One assay concerns the target human TLR7 (Homo sapiens (Human), UniProt Q9NYK1). In words: TLR7 inhibition reporter assay (HEK-Blue SEAP). Type of assay: cell-based. The conditions noted are these: HEK-Blue cells overexpressing human TLR7, SEAP reporter, gardiquimod 7.5 μM. In general terms: A reporter such as luciferase makes a cellular process visible.
The next assay concerns the target human TLR9 (Homo sapiens (Human), UniProt Q9NR96). In words: TLR9 inhibition reporter assay (HEK-Blue SEAP).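 Note: SEAP driven by an IFN-β minimal promoter with NF-κB and AP-1 sites, read after 22 h, compounds dosed 0.05 nM–50 µM, inhibition scaled between agonist plus DMSO and reference-inhibitor wells.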 The conditions noted are these: read-out: TLR9 IC50; HEK-Blue cells overexpressing human TLR9, SEAP reporter, ODN2006 5 nM.
The next assay concerns the target human TLR8 (Homo sapiens (Human), UniProt Q9NR97). In words: TLR8 inhibition reporter assay (HEK-Blue SEAP).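 Note: SEAP driven by IFN-β minimal promoter carrying NF-κB and AP-1 sites, compounds dosed 0.05 nM to 50 µM for 22 h, inhibition scaled between agonist-plus-DMSO and reference-inhibitor wells.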 Conditions: read-out: TLR8 IC50; HEK-Blue cells overexpressing human TLR8, SEAP reporter, R848 15.9 μM.

As a reminder, the IC50 is the concentration at which inhibition is half-maximal.

Chain of human TLR7 (Q9NYK1 27-1049): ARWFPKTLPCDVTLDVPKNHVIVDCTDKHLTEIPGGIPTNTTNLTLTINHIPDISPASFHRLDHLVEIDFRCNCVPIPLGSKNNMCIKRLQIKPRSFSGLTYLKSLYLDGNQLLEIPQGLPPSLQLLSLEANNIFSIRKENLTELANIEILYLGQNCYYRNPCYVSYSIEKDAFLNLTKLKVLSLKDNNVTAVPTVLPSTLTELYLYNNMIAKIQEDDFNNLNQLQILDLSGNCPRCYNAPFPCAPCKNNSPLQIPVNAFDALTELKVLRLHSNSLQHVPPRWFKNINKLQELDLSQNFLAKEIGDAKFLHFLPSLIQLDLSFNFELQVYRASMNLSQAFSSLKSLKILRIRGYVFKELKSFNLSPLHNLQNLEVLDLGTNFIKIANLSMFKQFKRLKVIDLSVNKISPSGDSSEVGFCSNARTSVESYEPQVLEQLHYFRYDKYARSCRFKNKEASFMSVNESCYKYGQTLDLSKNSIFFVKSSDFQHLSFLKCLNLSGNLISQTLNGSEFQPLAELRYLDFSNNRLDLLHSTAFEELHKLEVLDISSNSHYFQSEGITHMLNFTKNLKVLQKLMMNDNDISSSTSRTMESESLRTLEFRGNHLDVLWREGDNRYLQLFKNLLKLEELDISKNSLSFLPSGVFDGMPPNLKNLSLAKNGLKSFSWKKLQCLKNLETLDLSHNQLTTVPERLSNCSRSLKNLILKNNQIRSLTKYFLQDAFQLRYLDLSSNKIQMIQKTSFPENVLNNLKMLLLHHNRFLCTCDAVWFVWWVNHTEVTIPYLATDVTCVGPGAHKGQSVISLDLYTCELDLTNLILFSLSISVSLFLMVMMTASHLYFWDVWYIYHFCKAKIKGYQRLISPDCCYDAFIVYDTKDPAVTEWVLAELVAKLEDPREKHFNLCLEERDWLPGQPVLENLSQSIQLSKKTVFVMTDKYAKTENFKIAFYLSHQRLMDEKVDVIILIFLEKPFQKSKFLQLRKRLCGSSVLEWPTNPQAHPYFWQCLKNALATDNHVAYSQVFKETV
Chain of human TLR8 (Q9NR97 27-1041): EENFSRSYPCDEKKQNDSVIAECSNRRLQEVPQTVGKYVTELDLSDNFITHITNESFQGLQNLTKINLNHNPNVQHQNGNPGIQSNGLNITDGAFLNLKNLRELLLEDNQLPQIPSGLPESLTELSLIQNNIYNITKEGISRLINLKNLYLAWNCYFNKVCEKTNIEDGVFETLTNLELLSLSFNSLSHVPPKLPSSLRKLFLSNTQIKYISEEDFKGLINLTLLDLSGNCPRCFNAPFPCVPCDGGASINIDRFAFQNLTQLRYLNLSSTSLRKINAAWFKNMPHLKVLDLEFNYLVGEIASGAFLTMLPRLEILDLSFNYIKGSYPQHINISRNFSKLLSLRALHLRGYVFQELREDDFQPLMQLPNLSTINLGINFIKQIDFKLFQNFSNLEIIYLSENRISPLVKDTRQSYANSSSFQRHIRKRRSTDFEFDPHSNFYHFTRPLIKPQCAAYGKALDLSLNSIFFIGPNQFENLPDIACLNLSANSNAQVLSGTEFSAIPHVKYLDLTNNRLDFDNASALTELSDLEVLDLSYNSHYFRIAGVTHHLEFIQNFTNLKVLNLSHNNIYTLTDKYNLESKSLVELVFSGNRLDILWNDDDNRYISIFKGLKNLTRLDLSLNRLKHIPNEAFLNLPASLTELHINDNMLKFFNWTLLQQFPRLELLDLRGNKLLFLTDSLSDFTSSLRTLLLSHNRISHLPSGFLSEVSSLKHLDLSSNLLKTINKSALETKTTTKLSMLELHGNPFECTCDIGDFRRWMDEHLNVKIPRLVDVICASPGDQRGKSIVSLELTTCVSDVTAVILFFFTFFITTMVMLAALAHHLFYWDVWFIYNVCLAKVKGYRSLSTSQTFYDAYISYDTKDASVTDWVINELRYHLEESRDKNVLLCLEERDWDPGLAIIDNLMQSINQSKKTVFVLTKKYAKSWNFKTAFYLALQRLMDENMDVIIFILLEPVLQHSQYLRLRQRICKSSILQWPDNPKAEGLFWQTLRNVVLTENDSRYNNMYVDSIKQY
Chain of human TLR9 (Q9NR96 26-1032): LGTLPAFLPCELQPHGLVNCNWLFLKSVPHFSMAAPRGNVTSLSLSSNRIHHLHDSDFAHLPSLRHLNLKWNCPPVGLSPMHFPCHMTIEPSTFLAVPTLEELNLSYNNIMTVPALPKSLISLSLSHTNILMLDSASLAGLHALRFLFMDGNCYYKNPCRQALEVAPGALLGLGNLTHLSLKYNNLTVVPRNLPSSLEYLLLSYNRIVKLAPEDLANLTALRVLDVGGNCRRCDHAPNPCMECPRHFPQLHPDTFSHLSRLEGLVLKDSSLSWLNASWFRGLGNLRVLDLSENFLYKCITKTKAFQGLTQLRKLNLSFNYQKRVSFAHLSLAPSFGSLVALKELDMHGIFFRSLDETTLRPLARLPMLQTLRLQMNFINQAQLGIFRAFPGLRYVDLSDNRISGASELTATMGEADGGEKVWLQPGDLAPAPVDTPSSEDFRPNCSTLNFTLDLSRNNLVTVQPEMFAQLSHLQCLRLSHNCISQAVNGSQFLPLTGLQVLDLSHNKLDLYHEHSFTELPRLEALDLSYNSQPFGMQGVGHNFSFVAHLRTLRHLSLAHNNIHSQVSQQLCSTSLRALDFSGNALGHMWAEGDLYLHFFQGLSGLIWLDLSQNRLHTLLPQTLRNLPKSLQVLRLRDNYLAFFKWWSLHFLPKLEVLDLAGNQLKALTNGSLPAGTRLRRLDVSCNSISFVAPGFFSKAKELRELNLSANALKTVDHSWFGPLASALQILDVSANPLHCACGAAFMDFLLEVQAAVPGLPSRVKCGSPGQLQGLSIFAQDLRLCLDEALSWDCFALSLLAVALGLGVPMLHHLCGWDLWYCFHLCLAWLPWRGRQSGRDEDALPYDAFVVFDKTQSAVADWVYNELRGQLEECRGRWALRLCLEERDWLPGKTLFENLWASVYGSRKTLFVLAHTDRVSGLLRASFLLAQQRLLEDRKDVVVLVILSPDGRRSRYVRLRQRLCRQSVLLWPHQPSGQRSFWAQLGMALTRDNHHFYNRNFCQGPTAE

On to `COc1cc(-c2[nH]c3ccc(OCC4CCN(CC(=O)N(C)C)CC4)nc3c2C(C)C)cn2ncnc12` [Example 602, 2-(4-(((3-isopropyl-2-(8-methoxy-[1,2,4]triazolo[1,5-a]pyridin-6-yl)-1H-pyrrolo[3,2-b]pyridin-5-yl)oxy)methyl)piperidin-1-yl)-N,N-dimethylacetamide], for which the IC50 on human TLR7 was found to be 1.2 nM; on human TLR9, 1430 nM; on human TLR8, 6.8 nM.
As for `COc1cc(-c2[nH]c3ccc(OC4CCN(C(C)C)CC4)nc3c2C(C)C)cn2ncnc12` [Example 603, 6-(3-isopropyl-5-((1-isopropylpiperidin-4-yl)oxy)-1H-pyrrolo[3,2-b]pyridin-2-yl)-8-methoxy-[1,2,4]triazolo[1,5-a]pyridine], the IC50 against human TLR7 was determined as 1.5 nM; on human TLR9 it was 1190 nM; at human TLR8, 5.2 nM.
Take `COc1cc(-c2[nH]c3ccc(OCC4CCN(CCS(C)(=O)=O)CC4)nc3c2C(C)C)cn2ncnc12` [Example 604, 6-(3-isopropyl-5-((1-(2-(methylsulfonyl)ethyl)piperidin-4-yl)methoxy)-1H-pyrrolo[3,2-b]pyridin-2-yl)-8-methoxy-[1,2,4]triazolo[1,5-a]pyridine]: the IC50 turned out to be 2.8 nM against human TLR7, 5910 nM at human TLR9 and 2.5 nM at human TLR8.
Take `CCCN1CCC(COc2ccc3[nH]c(-c4cc(OC)c5ncnn5c4)c(C(C)C)c3n2)CC1` [Example 606, 6-(3-isopropyl-5-((1-propylpiperidin-4-yl)methoxy)-1H-pyrrolo[3,2-b]pyridin-2-yl)-8-methoxy-[1,2,4]triazolo[1,5-a]pyridine]: the figures for the IC50 on human TLR7, at human TLR9 and at human TLR8 were 2.3 nM, 1710 nM and 3.9 nM, respectively.
Take `COc1cc(-c2[nH]c3ccc(OC4CCN(C5CCOCC5)CC4)nc3c2C(C)C)cn2ncnc12` [Example 607, 6-(3-isopropyl-5-((1-(tetrahydro-2H-pyran-4-yl)piperidin-4-yl)oxy)-1H-pyrrolo[3,2-b]pyridin-2-yl)-8-methoxy-[1,2,4]triazolo[1,5-a]pyridine]: the IC50 against human TLR7 stood at 2.1 nM; on human TLR9, 1140 nM; at human TLR8 it was 2.6 nM.
On to `COc1cc(-c2[nH]c3ccc(OCC4CN(C)C4)nc3c2C(C)C)cn2ncnc12` [Example 608, 6-(3-isopropyl-5-((1-methylazetidin-3-yl)methoxy)-1H-pyrrolo[3,2-b]pyridin-2-yl)-8-methoxy-[1,2,4]triazolo[1,5-a]pyridine], for which the IC50 against human TLR7 worked out at 1.1 nM; at human TLR9 it was 1710 nM; on human TLR8, 6.1 nM.
On to `COc1cc(-c2[nH]c3ccc(OC4CCN(CC(=O)N(C)C)CC4)nc3c2C(C)C)cn2ncnc12` [Example 609, 2-(4-((3-isopropyl-2-(8-methoxy-[1,2,4]triazolo[1,5-a]pyridin-6-yl)-1H-pyrrolo[3,2-b]pyridin-5-yl)oxy)piperidin-1-yl)-N,N-dimethylacetamide], for which the figures for the IC50 on human TLR7, at human TLR9 and at human TLR8 were 2.6 nM, 2720 nM and 23 nM, respectively.
In the case of `COc1cc(-c2[nH]c3ccc(OC4CCC(N(C)C)CC4)nc3c2C(C)C)cn2ncnc12` (stereo not drawn) [Example 610, 4-((3-isopropyl-2-(8-methoxy-[1,2,4]triazolo[1,5-a]pyridin-6-yl)-1H-pyrrolo[3,2-b]pyridin-5-yl)oxy)-N,N-dimethylcyclohexan-1-amine], the results for the half-maximal inhibitory concentration (IC50) against human TLR7, on human TLR9 and at human TLR8 were 1.5 nM, 1770 nM and 14 nM, respectively.
For `CCCN(CCC)C1CCC(Oc2ccc3[nH]c(-c4cc(OC)c5ncnn5c4)c(C(C)C)c3n2)CC1` (stereo not drawn) [Example 611, 4-((3-isopropyl-2-(8-methoxy-[1,2,4]triazolo[1,5-a]pyridin-6-yl)-1H-pyrrolo[3,2-b]pyridin-5-yl)oxy)-N,N-dipropylcyclohexan-1-amine], in that order: 8.4 nM, 1930 nM and 17 nM.
For the compound `COc1cc(-c2[nH]c3ccc(OC4CN(C(C)C)C4)nc3c2C(C)C)cn2ncnc12` [Example 612, 6-(3-isopropyl-5-((1-isopropylazetidin-3-yl)oxy)-1H-pyrrolo[3,2-b]pyridin-2-yl)-8-methoxy-[1,2,4]triazolo[1,5-a]pyridine], the figures for the IC50 at human TLR7, at human TLR9 and on human TLR8 were 13 nM, 3930 nM and 56 nM, respectively.
`COc1cc(-c2[nH]c3ccc(OC4CCN(CC(C)(C)O)CC4)nc3c2C(C)C)cn2ncnc12` [Example 613, 1-(4-((3-isopropyl-2-(8-methoxy-[1,2,4]triazolo[1,5-a]pyridin-6-yl)-1H-pyrrolo[3,2-b]pyridin-5-yl)oxy)piperidin-1-yl)-2-methylpropan-2-ol]: the IC50 was found to be 2 nM at human TLR7, 1240 nM on human TLR9 and 3.2 nM on human TLR8.
With `COc1cc(-c2[nH]c3ccc(OC4CCC(N(C)C)CC4)nc3c2C(C)C)cn2ncnc12` (stereo not drawn) [Example 614, 4-((3-isopropyl-2-(8-methoxy-[1,2,4]triazolo[1,5-a]pyridin-6-yl)-1H-pyrrolo[3,2-b]pyridin-5-yl)oxy)-N,N-dimethylcyclohexan-1-amine], the IC50 against human TLR7 worked out at 1.9 nM; on human TLR9, 1010 nM; at human TLR8, 13 nM.
Take `Cc1c(-c2[nH]c3ccc(C4CC(N(C)C(=O)CN(C)C)C4)nc3c2C(C)C)cn2ncnc2c1C` (stereo not drawn) [Example 615]: the half-inhibitory concentration (IC50) amounted to 2.4 nM on human TLR7, 1960 nM at human TLR9 and 7.9 nM on human TLR8.
For the compound `COc1cc(-c2[nH]c3ccc(C4CC(NCC5(C)COC5)C4)nc3c2C(C)C)cn2ncnc12` (stereo not drawn) [Example 616], the IC50 is 3.6 nM on human TLR7, 1280 nM at human TLR9 and 1.5 nM at human TLR8.
Regarding `Cc1c(-c2[nH]c3ccc(C4CC(N)C4)nc3c2C(C)C)cn2ncnc2c1C` (stereo not drawn) [Example 617], the IC50 against human TLR7 was 2220 nM; on human TLR9 it was 20500 nM; at human TLR8 it was 1320 nM.
`Cc1c(-c2[nH]c3ccc(C4CC(N(C)C)C4)nc3c2C(C)C)cn2ncnc2c1C` (stereo not drawn) [Example 618]: the IC50 on human TLR7 was 4.8 nM; on human TLR9 it was 3700 nM; on human TLR8, 4.6 nM.
Regarding `COc1cc(-c2[nH]c3ccc(C4CC(NC(=O)CN(C)C)C4)nc3c2C(C)C)cn2ncnc12` (stereo not drawn) [Example 619], the results for the IC50 at human TLR7, on human TLR9 and on human TLR8 were 0.43 nM, 865 nM and 3 nM, respectively.
Consider `COc1cc(-c2[nH]c3ccc(C4CC(N)C4)nc3c2C(C)C)cn2ncnc12` (stereo not drawn) [Example 620], for which the half-maximal inhibitory concentration (IC50) at human TLR7 is 0.73 nM; at human TLR9, 223 nM; on human TLR8, 2.4 nM.
Regarding `Cc1c(-c2[nH]c3ccc(C4CC(N(C)CCS(C)(=O)=O)C4)nc3c2C(C)C)cn2ncnc2c1C` (stereo not drawn) [Example 621], the IC50 against human TLR7 is 7 nM; on human TLR9, 14700 nM; on human TLR8, 7.5 nM.
Turning to `Cc1c(-c2[nH]c3ccc(C4CC(N(C)CC(=O)N(C)C)C4)nc3c2C(C)C)cn2ncnc2c1C` (stereo not drawn) [Example 622], the IC50 against human TLR7 is 30 nM; at human TLR9 it was 5070 nM; at human TLR8 it was 14 nM.
Regarding `Cc1c(-c2[nH]c3ccc(C4CC(N(C)C)C4)nc3c2C(C)C)cn2ncnc2c1C` (stereo not drawn) [Example 623], the IC50 against human TLR7 came out at 1.6 nM; on human TLR9, 3130 nM; on human TLR8, 2 nM.
Take `Cc1c(-c2[nH]c3ccc(C4CC(NCCS(C)(=O)=O)C4)nc3c2C(C)C)cn2ncnc2c1C` (stereo not drawn) [Example 624]: the values for the IC50 against human TLR7, at human TLR9 and on human TLR8 were 3 nM, 2570 nM and 2 nM, respectively.
For `COc1cc(-c2[nH]c3ccc(C4CC(N(C)C(=O)CN(C)C)C4)nc3c2C(C)C)cn2ncnc12` (stereo not drawn) [Example 625], in that order: 0.72 nM, 978 nM and 10 nM.
Consider `Cc1c(-c2[nH]c3ccc(C4CC(N(C)CC5(C)COC5)C4)nc3c2C(C)C)cn2ncnc2c1C` (stereo not drawn) [Example 626], for which the results for the IC50 against human TLR7, at human TLR9 and on human TLR8 were 29 nM, 13500 nM and 8 nM, respectively.
With `COc1cc(-c2[nH]c3ccc(C4CC(N(C)CC(=O)N(C)C)C4)nc3c2C(C)C)cn2ncnc12` (stereo not drawn) [Example 627], the IC50 stood at 7.9 nM against human TLR7, 4500 nM at human TLR9 and 18 nM on human TLR8.
Taken in the same sequence, the figures for `CNC(=O)CNC1CC(c2ccc3[nH]c(-c4cc(OC)c5ncnn5c4)c(C(C)C)c3n2)C1` (stereo not drawn) [Example 628] were 2.1 nM, 343 nM and 3.3 nM.
For the compound `COc1cc(-c2[nH]c3ccc(C4CC(N(C)C)C4)nc3c2C(C)C)cn2ncnc12` (stereo not drawn) [Example 629], the IC50 on human TLR7 stood at 2.6 nM; on human TLR9 it was 1920 nM; at human TLR8 it was 6.5 nM.
As for `COc1cc(-c2[nH]c3ccc(C4CC(N(C)C(=O)CN(C)C)C4)nc3c2C(C)C)cn2ncnc12` (stereo not drawn) [Example 630], the IC50 turned out to be 1.9 nM on human TLR7, 1280 nM at human TLR9 and 14 nM on human TLR8.
For `CNC(=O)CNC1CC(c2ccc3[nH]c(-c4cn5ncnc5c(C)c4C)c(C(C)C)c3n2)C1` (stereo not drawn) [Example 631], the 50% inhibitory concentration (IC50) came out at 4 nM at human TLR7, 3070 nM at human TLR9 and 1.9 nM on human TLR8.
As to `COc1cc(-c2[nH]c3ccc(C4CC(NC5CCOCC5)C4)nc3c2C(C)C)cn2ncnc12` (stereo not drawn) [Example 632], the results for the IC50 against human TLR7, on human TLR9 and on human TLR8 were 3.1 nM, 439 nM and 2.2 nM, respectively.
For `Cc1c(-c2[nH]c3ccc(C4CC(N(CC5(C)COC5)CC5(C)COC5)C4)nc3c2C(C)C)cn2ncnc2c1C` (stereo not drawn) [Example 633], the IC50 at human TLR7 turned out to be 40 nM; on human TLR9, 25500 nM; on human TLR8, 33 nM.
For `COc1cc(-c2[nH]c3ccc(C4CC(NCCS(C)(=O)=O)C4)nc3c2C(C)C)cn2ncnc12` (stereo not drawn) [Example 634], the IC50 is 2 nM on human TLR7, 2370 nM on human TLR9 and 3 nM at human TLR8.
Regarding `Cc1c(-c2[nH]c3ccc(C4CC(NC5CCOCC5)C4)nc3c2C(C)C)cn2ncnc2c1C` (stereo not drawn) [Example 635], the IC50 was 5.7 nM against human TLR7, 1780 nM at human TLR9 and 1.1 nM on human TLR8.

(Values after patent US10544143B2, “4-azaindole compounds” (BRISTOL-MYERS SQUIBB COMPANY, priority 2017, dated 2020).)
